# Assay results from patent US20260144786A1, “METHOD FOR TREATING MENSTRUAL CYCLE DISORDERS” (Guangzhou HuTong Youwu Biotechnology Co., Ltd, priority 2023, published 2026).
# Columns and labels:
# [1] = Use of PQQ for ameliorating or treating menstrual cycle disorders (oral tablets, six months, vitamin C control); format: in vivo, human; settings: preliminary experimental data
# Protocol: (§1) The criteria for menstrual cycle disorders are as follows: 1. Early menstruation: Early menstruation refers to a shortened menstrual cycle that is shorter than 21 days and occurs for more than two consecutive cycles. It is a biphasic basal body temperature of ovulatory functional uterine bleeding, a short follicular phase of only 7 or 8 days; or a luteal phase of less than 10 days, or a temperature rise of less than 0.5° C. 2. Delayed menstruation: Menstruation is missed for more than 7 days, or even 40-50 days, and symptoms appear for more than 2 menstrual cycles. […] 3. Prolonged menstruation: The symptoms of this type of menstrual disorder are mainly a normal menstrual cycle but a prolonged menstrual period, lasting more than 7 days, or even up to 2 weeks before ending. Those with inflammation usually experience lower abdominal pain, which is aggravated during menstruation. Usually, the amount of leucorrhea is heavy, yellow or yellowish-white, thick, and odorous. Those with incomplete corpus luteum atrophy are also accompanied by heavy menstruation; those with prolonged endometrial repair still experience a small amount of persistent vaginal bleeding after the normal menstrual period. 4. Irregular menstruation: Menstruation is early or late, and the cycle is shorter than 21 days or longer than 35 days. No endometriosis. […]
# [2] = Use of PQQ for preventing menstrual cycle disorders (oral tablets, six months, vitamin C control); format: in vivo, human; settings: preliminary experimental data
# Protocol: as §1
structure (smiles),measurement,setting,value
"O=C(O)c1cc(C(=O)O)c2c(n1)C(=O)C(=O)c1cc(C(=O)O)[nH]c1-2 [PQQ, 4,5-dioxo-1H-pyrrolo[2,3-f]quinoline-2,7,9-tricarboxylic acid]",effect on alleviating or treating menstrual cycle disorders compared with a placebo,[1],significant effect
same,effect on preventing menstrual cycle disorders compared with a placebo,[2],significant effect
